# Test results reported in publication PMC6407913, “DREADD Agonist 21 Is an Effective Agonist for Muscarinic-Based DREADDs in Vitro and in Vivo” (ACS Pharmacology & Translational Science, 2018).
# “And” between values parts separate entries of the source, which are not always exact repeats. Equal entries are not always repeated. Where two headings read alike, the source gives them in different places.
# Assays:
# hM1 = target: T1, hM1 (Homo sapiens, UniProt P11229); assay: whole-cell [3H]NMS competition binding; details: hM1, FlpIn CHO cells, mean (±SEM)
# T1 sequence (P11229 1-460): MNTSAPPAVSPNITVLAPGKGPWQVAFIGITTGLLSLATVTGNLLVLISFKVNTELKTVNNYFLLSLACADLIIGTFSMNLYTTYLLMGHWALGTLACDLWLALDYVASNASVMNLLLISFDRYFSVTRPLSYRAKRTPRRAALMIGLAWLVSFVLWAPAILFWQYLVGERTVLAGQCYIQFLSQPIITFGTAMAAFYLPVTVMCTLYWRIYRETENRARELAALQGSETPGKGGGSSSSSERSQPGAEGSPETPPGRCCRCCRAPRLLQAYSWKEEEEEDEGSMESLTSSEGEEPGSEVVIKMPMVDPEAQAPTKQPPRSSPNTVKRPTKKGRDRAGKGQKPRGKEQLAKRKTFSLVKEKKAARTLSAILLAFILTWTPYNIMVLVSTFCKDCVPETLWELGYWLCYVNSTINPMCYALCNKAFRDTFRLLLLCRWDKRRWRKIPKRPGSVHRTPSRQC
# 5-HT1A = target: T2, 5-HT1A (Homo sapiens, UniProt P08908); assay: NIMH PDSP radioligand binding, membranes
# T2 construct: NIMH PDSP
# Experimental: (§1) Radioligand binding assays with membrane preparations to determine binding affinity were carried out as outlined before[540] and by the National Institute of Mental Health’s Psychoactive Drug Screening Program (NIMH PDSP) (https://pdsp.unc.edu/), Contract # HHSN-271–2013–00017-C. The NIMH PDSP is Directed by B.L.R. at the University of North Carolina at Chapel Hill, Chapel Hill, NC, and Project Officer Jamie Driscoll at NIMH, Bethesda, MD.
# 5-HT1B = target: T3, 5-HT1B (Homo sapiens, UniProt P28222); assay: NIMH PDSP radioligand binding, membranes
# T3 construct: NIMH PDSP
# Experimental: as §1
# 5-HT1E = 5-HT1E (Homo sapiens, UniProt P28566); assay: NIMH PDSP radioligand binding, membranes
# Experimental: as §1
# 5-HT4 = target: T4, 5-HT4 (Homo sapiens, UniProt Q13639); assay: NIMH PDSP radioligand binding, membranes
# T4 construct: NIMH PDSP
# Experimental: as §1
# Alpha1A = target: T5, Alpha1A (Homo sapiens, UniProt P35348); assay: NIMH PDSP radioligand binding, membranes
# T5 construct: NIMH PDSP
# T5 sequence (P35348 1-466): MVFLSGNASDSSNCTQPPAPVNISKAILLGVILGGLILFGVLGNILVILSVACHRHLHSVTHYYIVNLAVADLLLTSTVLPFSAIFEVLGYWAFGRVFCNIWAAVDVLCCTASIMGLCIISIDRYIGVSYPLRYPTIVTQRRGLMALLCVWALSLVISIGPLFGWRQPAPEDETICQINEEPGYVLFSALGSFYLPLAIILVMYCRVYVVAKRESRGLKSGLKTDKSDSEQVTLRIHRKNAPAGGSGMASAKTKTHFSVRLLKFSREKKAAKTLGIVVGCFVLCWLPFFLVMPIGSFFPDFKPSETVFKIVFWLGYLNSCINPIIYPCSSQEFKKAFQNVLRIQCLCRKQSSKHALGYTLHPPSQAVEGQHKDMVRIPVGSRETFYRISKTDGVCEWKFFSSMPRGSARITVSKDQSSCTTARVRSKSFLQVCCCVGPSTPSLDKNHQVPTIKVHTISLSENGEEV
# Experimental: as §1
# Alpha2B = target: T6, Alpha2B (Homo sapiens, UniProt P18089); assay: NIMH PDSP radioligand binding, membranes
# T6 construct: NIMH PDSP
# Experimental: as §1
# Beta1 = target: T7, Beta1 (Homo sapiens, UniProt P08588); assay: NIMH PDSP radioligand binding, membranes
# T7 construct: NIMH PDSP
# Experimental: as §1
# D1 = D1 (Homo sapiens, UniProt P21728); assay: NIMH PDSP radioligand binding, membranes
# Experimental: as §1
# D2 = D2 (Homo sapiens, UniProt P14416); assay: NIMH PDSP radioligand binding, membranes
# Experimental: as §1
# DOR = DOR (Homo sapiens, UniProt P41143); assay: NIMH PDSP radioligand binding, membranes
# Experimental: as §1
# H3 = H3 (Homo sapiens, UniProt Q9Y5N1); assay: NIMH PDSP radioligand binding, membranes
# Experimental: as §1
# KOR = KOR (Homo sapiens, UniProt P41145); assay: NIMH PDSP radioligand binding, membranes
# Experimental: as §1
# M4 = M4 (Homo sapiens, UniProt P08173); assay: NIMH PDSP radioligand binding, membranes
# Experimental: as §1
# M5 = M5 (Homo sapiens, UniProt P08912); assay: NIMH PDSP radioligand binding, membranes
# Experimental: as §1
# hM4Di = target: T8, hM4Di (Homo sapiens, UniProt P08173, A203G/Y113C); assay: ERK1/2 phosphorylation (pERK1/2) assay
# T8 sequence (P08173 1-479 Y113C/A203G): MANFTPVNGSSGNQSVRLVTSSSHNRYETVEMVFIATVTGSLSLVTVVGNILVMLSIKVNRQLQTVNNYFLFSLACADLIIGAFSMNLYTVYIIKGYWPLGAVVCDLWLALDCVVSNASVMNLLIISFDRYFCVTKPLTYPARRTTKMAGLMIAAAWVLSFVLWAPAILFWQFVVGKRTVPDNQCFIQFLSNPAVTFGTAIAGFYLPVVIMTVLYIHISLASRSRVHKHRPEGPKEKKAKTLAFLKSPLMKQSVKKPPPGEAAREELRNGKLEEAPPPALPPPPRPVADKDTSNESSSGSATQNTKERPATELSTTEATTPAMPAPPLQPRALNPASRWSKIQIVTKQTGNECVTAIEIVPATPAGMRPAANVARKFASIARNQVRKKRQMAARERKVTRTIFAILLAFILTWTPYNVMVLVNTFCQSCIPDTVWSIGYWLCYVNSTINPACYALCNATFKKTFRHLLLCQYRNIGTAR
# [1] = system: hM4Di expressed in PVH SIM1 neurons; assay: food intake, hM4Di in PVH SIM1 neurons (Sim1-Cre mice)
# [2] = read-out: Ki #1-#5 (individual assays)
# T4 sequence (Q13639 whole entry, species assumed): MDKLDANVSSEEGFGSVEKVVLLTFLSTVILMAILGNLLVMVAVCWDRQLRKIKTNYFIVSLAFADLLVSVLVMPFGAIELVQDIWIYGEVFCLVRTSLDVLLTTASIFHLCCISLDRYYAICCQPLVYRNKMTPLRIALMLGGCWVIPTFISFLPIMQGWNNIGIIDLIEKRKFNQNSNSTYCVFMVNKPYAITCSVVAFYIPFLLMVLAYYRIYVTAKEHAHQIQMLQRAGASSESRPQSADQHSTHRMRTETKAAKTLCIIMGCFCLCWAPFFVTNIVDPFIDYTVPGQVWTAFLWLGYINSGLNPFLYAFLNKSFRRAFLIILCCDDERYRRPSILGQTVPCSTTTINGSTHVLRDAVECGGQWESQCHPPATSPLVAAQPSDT
# D2, sequence (P14416 whole entry): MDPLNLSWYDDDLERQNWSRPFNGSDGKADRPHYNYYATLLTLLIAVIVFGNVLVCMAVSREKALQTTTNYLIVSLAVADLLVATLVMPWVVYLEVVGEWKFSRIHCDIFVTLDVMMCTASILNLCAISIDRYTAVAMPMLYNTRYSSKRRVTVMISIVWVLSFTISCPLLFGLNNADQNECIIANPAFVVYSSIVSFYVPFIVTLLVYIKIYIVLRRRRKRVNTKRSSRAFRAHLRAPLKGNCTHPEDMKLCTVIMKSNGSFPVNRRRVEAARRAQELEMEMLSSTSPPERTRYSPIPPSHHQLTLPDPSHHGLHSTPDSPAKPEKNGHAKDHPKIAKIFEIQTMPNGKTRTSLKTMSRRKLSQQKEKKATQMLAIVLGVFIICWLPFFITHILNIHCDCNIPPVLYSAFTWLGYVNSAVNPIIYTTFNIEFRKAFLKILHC
# 5-HT1E, sequence (P28566 whole entry, species assumed): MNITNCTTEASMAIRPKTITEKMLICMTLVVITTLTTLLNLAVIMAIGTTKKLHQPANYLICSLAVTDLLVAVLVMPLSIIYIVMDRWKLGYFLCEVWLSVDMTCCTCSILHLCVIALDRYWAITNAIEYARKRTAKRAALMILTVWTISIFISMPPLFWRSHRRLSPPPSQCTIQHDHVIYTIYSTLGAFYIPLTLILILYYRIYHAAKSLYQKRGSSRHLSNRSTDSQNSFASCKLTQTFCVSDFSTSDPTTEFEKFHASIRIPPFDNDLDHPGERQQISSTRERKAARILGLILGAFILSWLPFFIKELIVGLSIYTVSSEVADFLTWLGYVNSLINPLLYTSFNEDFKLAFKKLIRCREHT
# D1, sequence (P21728 whole entry): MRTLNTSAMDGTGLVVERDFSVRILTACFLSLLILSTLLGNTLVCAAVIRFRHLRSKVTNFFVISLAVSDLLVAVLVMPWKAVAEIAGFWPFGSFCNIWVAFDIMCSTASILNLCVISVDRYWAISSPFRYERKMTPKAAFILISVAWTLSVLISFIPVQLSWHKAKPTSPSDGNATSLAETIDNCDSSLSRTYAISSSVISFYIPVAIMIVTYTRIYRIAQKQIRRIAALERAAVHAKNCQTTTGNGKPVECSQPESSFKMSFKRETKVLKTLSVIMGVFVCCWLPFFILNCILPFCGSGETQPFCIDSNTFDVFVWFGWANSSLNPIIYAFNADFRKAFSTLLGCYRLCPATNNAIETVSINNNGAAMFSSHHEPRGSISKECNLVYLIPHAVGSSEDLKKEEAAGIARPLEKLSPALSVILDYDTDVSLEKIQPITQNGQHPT
# T6 sequence (P18089 whole entry): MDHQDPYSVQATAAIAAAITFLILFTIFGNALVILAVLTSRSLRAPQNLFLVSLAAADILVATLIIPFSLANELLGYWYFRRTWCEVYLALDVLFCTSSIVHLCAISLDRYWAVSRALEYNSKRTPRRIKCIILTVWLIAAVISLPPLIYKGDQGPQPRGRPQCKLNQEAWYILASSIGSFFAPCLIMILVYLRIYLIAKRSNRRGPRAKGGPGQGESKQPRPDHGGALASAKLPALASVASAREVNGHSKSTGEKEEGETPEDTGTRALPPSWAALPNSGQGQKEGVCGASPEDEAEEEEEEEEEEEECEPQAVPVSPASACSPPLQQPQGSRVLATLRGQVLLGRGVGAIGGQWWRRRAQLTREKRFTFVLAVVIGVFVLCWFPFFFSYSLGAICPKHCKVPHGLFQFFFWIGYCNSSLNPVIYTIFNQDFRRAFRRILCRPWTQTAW
# T3 sequence (P28222 whole entry, species assumed): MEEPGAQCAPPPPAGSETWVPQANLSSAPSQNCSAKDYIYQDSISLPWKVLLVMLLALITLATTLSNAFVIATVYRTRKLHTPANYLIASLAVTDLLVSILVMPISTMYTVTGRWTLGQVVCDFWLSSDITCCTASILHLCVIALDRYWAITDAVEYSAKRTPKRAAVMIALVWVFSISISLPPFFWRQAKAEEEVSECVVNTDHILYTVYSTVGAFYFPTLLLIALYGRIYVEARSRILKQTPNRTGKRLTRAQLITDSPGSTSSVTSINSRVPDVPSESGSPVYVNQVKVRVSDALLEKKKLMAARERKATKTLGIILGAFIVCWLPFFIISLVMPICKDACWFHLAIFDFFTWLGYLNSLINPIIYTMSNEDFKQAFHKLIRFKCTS
# M4, sequence (P08173 whole entry): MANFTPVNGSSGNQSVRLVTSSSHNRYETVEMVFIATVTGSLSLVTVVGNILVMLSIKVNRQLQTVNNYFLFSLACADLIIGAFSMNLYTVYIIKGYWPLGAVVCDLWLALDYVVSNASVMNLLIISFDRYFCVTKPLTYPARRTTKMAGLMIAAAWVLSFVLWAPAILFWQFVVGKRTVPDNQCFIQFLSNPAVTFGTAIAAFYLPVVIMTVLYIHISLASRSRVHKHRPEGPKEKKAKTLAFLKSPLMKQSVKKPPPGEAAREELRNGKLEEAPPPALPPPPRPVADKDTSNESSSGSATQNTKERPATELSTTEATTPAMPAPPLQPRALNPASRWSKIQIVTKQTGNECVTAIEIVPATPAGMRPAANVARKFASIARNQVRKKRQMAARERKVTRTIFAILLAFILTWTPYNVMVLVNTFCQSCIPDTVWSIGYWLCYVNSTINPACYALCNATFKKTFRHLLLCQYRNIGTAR
# M5, sequence (P08912 whole entry): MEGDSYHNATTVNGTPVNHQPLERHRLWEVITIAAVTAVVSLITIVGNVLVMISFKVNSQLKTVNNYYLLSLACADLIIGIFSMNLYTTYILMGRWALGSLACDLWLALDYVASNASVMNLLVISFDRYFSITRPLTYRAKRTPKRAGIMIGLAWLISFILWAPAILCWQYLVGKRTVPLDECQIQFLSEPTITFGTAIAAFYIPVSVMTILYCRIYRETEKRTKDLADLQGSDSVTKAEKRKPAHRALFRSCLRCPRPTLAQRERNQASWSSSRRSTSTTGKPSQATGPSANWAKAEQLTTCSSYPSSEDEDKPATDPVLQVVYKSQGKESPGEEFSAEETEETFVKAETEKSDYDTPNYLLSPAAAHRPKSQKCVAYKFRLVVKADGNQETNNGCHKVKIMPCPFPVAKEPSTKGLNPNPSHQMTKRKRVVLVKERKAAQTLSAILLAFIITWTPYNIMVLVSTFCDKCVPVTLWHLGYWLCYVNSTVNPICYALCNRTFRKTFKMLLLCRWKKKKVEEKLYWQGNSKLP
# T2 sequence (P08908 whole entry, species assumed): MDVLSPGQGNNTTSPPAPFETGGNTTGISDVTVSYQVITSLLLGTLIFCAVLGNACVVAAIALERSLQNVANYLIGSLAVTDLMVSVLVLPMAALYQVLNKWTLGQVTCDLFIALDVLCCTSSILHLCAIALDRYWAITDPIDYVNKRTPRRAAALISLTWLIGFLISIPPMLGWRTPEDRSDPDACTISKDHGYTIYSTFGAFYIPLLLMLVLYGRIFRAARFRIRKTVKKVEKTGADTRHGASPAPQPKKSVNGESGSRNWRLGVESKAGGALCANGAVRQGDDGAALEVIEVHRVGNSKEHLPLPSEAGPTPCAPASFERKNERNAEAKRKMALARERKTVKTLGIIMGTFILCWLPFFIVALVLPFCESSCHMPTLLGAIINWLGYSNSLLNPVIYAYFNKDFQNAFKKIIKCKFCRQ
# H3, sequence (Q9Y5N1 whole entry): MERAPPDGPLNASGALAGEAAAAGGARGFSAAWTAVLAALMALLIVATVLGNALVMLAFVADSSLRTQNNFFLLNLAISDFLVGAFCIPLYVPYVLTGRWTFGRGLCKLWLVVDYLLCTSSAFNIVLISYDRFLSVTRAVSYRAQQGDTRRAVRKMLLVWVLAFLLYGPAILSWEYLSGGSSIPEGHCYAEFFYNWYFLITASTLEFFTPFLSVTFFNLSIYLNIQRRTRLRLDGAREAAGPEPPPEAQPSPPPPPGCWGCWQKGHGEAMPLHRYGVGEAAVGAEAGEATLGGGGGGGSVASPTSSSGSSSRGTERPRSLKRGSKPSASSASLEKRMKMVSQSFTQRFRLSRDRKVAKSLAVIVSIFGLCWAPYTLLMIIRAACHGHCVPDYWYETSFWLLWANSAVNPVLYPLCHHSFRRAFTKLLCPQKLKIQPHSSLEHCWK
# KOR, sequence (P41145 whole entry): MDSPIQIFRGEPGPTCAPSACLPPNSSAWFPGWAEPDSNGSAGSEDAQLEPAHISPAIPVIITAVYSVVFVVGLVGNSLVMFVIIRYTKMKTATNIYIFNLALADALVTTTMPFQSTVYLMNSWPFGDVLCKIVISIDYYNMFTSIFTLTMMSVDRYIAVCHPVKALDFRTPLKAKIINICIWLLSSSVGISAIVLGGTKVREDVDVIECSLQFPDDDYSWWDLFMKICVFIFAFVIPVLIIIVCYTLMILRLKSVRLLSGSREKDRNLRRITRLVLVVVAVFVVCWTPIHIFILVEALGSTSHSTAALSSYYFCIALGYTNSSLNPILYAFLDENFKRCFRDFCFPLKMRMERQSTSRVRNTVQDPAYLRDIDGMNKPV
structure (smiles),measurement,setting,value
"c1ccc2c(c1)N=C(N1CCNCC1)c1ccccc1N2 [C21, 11-(1-piperazinyl)-5H-dibenzo[b,e][1,4]diazepine]",Ki,hM1,1070 nM
same,Ki,5-HT1A; read-out: Ki,80.9 nM
same,Ki,5-HT1A; [2],64.5 nM and 144 nM and 57 nM
same,Ki,5-HT1B; read-out: Ki,3640 nM
same,Ki,5-HT1B; [2],4590 nM and 4530 nM and 2320 nM
same,Ki,5-HT1B; read-out: log Ki (individual assays) (converted),4570 nM
same,Ki,5-HT1E; read-out: Ki,206 nM
same,Ki,5-HT1E; [2],325 nM and 263 nM and 68 nM and 117 nM and 547 nM
same,Ki,5-HT4; read-out: Ki,> 10000 nM
same,Ki,5-HT4; [2],> 10000 nM
same,log Ki (individual assays),Alpha1A,<5
same,Ki,Alpha1A; read-out: Ki,> 10000 nM
same,Ki,Alpha1A; [2],> 10000 nM
same,Ki,Alpha2B; read-out: Ki,474 nM
same,Ki,Alpha2B; [2],1520 nM and 157 nM and 247 nM and 857 nM
same,Ki,Beta1; read-out: Ki,> 10000 nM
same,Ki,Beta1; [2],> 10000 nM
same,Ki,D1; read-out: Ki,479 nM
same,Ki,D1; [2],525 nM and 316 nM and 661 nM
same,Ki,D2; read-out: Ki,4570 nM
same,Ki,D2; [2],2750 nM and 4740 nM and 7340 nM
same,Ki,DOR; read-out: Ki,387 nM
same,Ki,DOR; [2],685 nM and 241 nM and 373 nM and 363 nM
same,Ki,H3; read-out: Ki,4940 nM
same,Ki,H3; [2],6850 nM and 4580 nM and 3850 nM
same,Ki,KOR; read-out: Ki,2980 nM
same,Ki,KOR; [2],6690 nM and 2680 nM and 1470 nM
same,Ki,M4; read-out: Ki,1880 nM
same,Ki,M4; [2],1560 nM and 2440 nM and 3020 nM and 734 nM and 2800 nM
same,Ki,M5; read-out: Ki,421 nM
same,Ki,M5; [2],175 nM and 395 nM and 1080 nM
same,EC50,hM4Di,17 nM
same,"food intake, light cycle, sated mice","[1]; SIM1-Cre mice with AAV-DIO-hM4Di-mCherry, i.p.",substantially enhanced food consumption at comparable levels to CNO
same,food intake in control mice,[1]; wildtype (non-Cre-expressing) littermates injected with AAV-DIO-hM4Di-mCherry,neither C21 nor CNO ligand influenced food intake
